Data reported in the supplement of paper PMC11061612.

Experiments:
Test in all cases: combination Emax (second highest fraction inhibited in the dose matrix, 72 h); higher = more inhibition; extreme values may be limits of the assay
[1] = tested on: SU-DHL-8 (B-Cell Non-Hodgkin's Lymphoma)
Outline: (§1)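 Bliss excess equals the observed combination effect minus the expected value EA + EB − EA·EB, where EA and EB are the effects of each agent alone. Combination Emax is the second-highest inhibition within the matrix. Inhibition was scaled from CellTiter-Glo 2.0 luminescence, with 0 set by vehicle wells and 1 by blank wells, after 72 hours of two-drug dosing of cells plated in 1536-well plates.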

[2] = tested on: KCL-22 (Chronic Myelogenous Leukemia)
Outline: as §1

[3] = tested on: KARPAS-45 (T-Lymphoblastic Leukemia)
Outline: as §1

CHP-212 (Neuroblastoma) = tested on: CHP-212 (Neuroblastoma)
Outline: as §1

[4] = tested on: COLO-678 (Colorectal Carcinoma)
Outline: as §1

[5] = tested on: L-540 (Hodgkin's Lymphoma)
Outline: as §1

[6] = tested on: TOV-112D (Ovarian Carcinoma)
Outline: as §1

[7] = tested on: NCI-H1792 (Lung Adenocarcinoma)
Outline: as §1

[8] = tested on: BFTC-905 (Bladder Carcinoma)
Outline: as §1

[9] = tested on: BL-41 (Burkitt's Lymphoma)
Outline: as §1

[10] = tested on: CAMA-1 (Breast Carcinoma)
Outline: as §1

[11] = tested on: MS751 (Cervical Carcinoma)
Outline: as §1

[12] = tested on: HL-60 (Acute Myeloid Leukemia)
Outline: as §1

[13] = tested on: SR (Other Blood Carcinomas)
Outline: as §1

[14] = tested on: MFM-223 (Breast Carcinoma)
Outline: as §1

[15] = tested on: DND-41 (T-Lymphoblastic Leukemia)
Outline: as §1

[16] = tested on: SW1417 (Colorectal Carcinoma)
Outline: as §1

[17] = tested on: PANC-08-13 (Pancreatic Carcinoma)
Outline: as §1

[18] = tested on: KM12 (Colorectal Carcinoma)
Outline: as §1

[19] = tested on: MOLT-16 (T-Lymphoblastic Leukemia)
Outline: as §1

| SMILES | combination Emax [1] | combination Emax [2] | combination Emax [3] | combination Emax (CHP-212 (Neuroblastoma)) | combination Emax [4] | combination Emax [5] | combination Emax [6] | combination Emax [7] | combination Emax [8] | combination Emax [9] | combination Emax [10] | combination Emax [11] | combination Emax [12] | combination Emax [13] | combination Emax [14] | combination Emax [15] | combination Emax [16] | combination Emax [17] | combination Emax [18] | combination Emax [19] |
| --- | --- | --- | --- | --- | --- | --- | --- | --- | --- | --- | --- | --- | --- | --- | --- | --- | --- | --- | --- | --- |
| C=CCn1c(=O)c2cnc(Nc3ccc(N4CCN(C)CC4)cc3)nc2n1-c1cccc(C(C)(C)O)n1 [AZD1775] + O=C(c1cc(Cc2n[nH]c(=O)c3ccccc23)ccc1F)N1CCN(C(=O)C2CC2)CC1 [Olaparib] (first compound max 1 µM, partner max 10 µM) | 0.877 | 0.882 | 0.847 | 0.831 | 0.205 | 0.946 | 0.427 | 0.707 | 0.55 | 1 | 0.149 | 0.215 | 0.36 | 0.995 | 0.56 | 0.878 | 0.564 | 0.329 | 0.748 | 1 |
| CCN(CCO)CCCOc1ccc2c(Nc3cc(CC(=O)Nc4cccc(F)c4)[nH]n3)ncnc2c1 [AZD2811] + C=CCn1c(=O)c2cnc(Nc3ccc(N4CCN(C)CC4)cc3)nc2n1-c1cccc(C(C)(C)O)n1 [AZD1775] (first compound max 1 µM, partner max 1 µM) | 0.929 | 0.932 | 0.936 | 0.843 | 0.278 | 0.916 | 0.712 | 0.608 | 0.531 | 1 | 0.171 | 0.599 | 0.845 | 0.991 | 0.56 | 0.902 | 0.412 | 0.268 | 0.705 | 1 |
| CCN(CCO)CCCOc1ccc2c(Nc3cc(CC(=O)Nc4cccc(F)c4)[nH]n3)ncnc2c1 [AZD2811] + C[C@@H]1COCCN1C2=NC(=NC(=C2)C3(CC3)[S@](=N)(=O)C)C4=C5C=CNC5=NC=C4 [AZD6738] (first compound max 1 µM, 7x7, partner max 10 µM) | 0.918 | 0.986 | 0.948 | 0.791 | 0.165 | 0.921 | 0.707 | 0.655 | 0.838 | 1 | 0.304 | 0.492 | 0.899 | 0.968 | 0.8 | 0.908 | 0.341 | 0.36 | 0.612 | 1 |
| CCN(CCO)CCCOc1ccc2c(Nc3cc(CC(=O)Nc4cccc(F)c4)[nH]n3)ncnc2c1 [AZD2811] + O=C(c1cc(Cc2n[nH]c(=O)c3ccccc23)ccc1F)N1CCN(C(=O)C2CC2)CC1 [Olaparib] (first compound max 1 µM, 7x7, partner max 10 µM) | 0.738 | 0.417 | 0.882 | 0.771 | 0.153 | 0.509 | 0.394 | 0.175 | 0.502 | 0.603 | 0.206 | 0.243 | 0.83 | 0.875 | 0.274 | 0.369 | 0.109 | 0.166 | 0.176 | 1 |
| CN(CCO)CC[C@H](CSc1ccccc1)Nc1ccc(S(=O)(=O)NC(=O)c2ccc(N3CCC([C@@H](O)c4ccccc4-c4ccc(Cl)cc4)CC3)cc2)cc1S(=O)(=O)C(F)(F)F [AZD4320] + C1CN(CCC1(C(=O)N[C@@H](CCO)C2=CC=C(C=C2)Cl)N)C3=NC=NC4=C3C=CN4 [Capivasertib] (first compound max 1 µM, 7x7, partner max 3 µM) | 0.916 | 0.35 | 0.987 | 0.176 | 0.0393 | 0.279 | 0.131 | 0.0895 | 0.0682 | 0.215 | 0.821 | 0.132 | 0.873 | 0.49 | 0.741 | 1 | 0.709 | 0.422 | 0.565 | 1 |
| CN(CCO)CC[C@H](CSc1ccccc1)Nc1ccc(S(=O)(=O)NC(=O)c2ccc(N3CCC([C@@H](O)c4ccccc4-c4ccc(Cl)cc4)CC3)cc2)cc1S(=O)(=O)C(F)(F)F [AZD4320] + C=CCn1c(=O)c2cnc(Nc3ccc(N4CCN(C)CC4)cc3)nc2n1-c1cccc(C(C)(C)O)n1 [AZD1775] (first compound max 1 µM, partner max 1 µM) | 1 | 0.937 | 1 | 0.809 | 0.367 | 0.979 | 0.496 | 0.696 | 0.759 | 1 | 0.182 | 0.262 | 0.956 | 1 | 0.383 | 1 | 0.853 | 0.492 | 0.881 | 1 |
| CN(CCO)CC[C@H](CSc1ccccc1)Nc1ccc(S(=O)(=O)NC(=O)c2ccc(N3CCC([C@@H](O)c4ccccc4-c4ccc(Cl)cc4)CC3)cc2)cc1S(=O)(=O)C(F)(F)F [AZD4320] + CCN(CCO)CCCOc1ccc2c(Nc3cc(CC(=O)Nc4cccc(F)c4)[nH]n3)ncnc2c1 [AZD2811] (first compound max 1 µM, 7x7, partner max 1 µM) | 1 | 0.556 | 1 | 0.758 | 0.456 | 0.594 | 0.485 | 0.113 | 0.856 | 0.723 | 0.616 | 0.348 | 0.958 | 0.938 | 0.693 | 1 | 0.759 | 0.422 | 0.173 | 1 |
| CN(CCO)CC[C@H](CSc1ccccc1)Nc1ccc(S(=O)(=O)NC(=O)c2ccc(N3CCC([C@@H](O)c4ccccc4-c4ccc(Cl)cc4)CC3)cc2)cc1S(=O)(=O)C(F)(F)F [AZD4320] + CN(C)CCCOc1ccc(-c2ccc3ncc4c(c3c2)n(C2CCOCC2)c(=O)n4C)cn1 [AZD0156] (first compound max 1 µM, 7x7, partner max 1 µM) | 0.957 | 0.361 | 0.988 | 0.278 | 0.0581 | 0.224 | 0.222 | 0.12 | 0.15 | 0.277 | 0.117 | 0.101 | 0.898 | 0.252 | 0.199 | 1 | 0.742 | 0.352 | 0.186 | 0.989 |
| CN(CCO)CC[C@H](CSc1ccccc1)Nc1ccc(S(=O)(=O)NC(=O)c2ccc(N3CCC([C@@H](O)c4ccccc4-c4ccc(Cl)cc4)CC3)cc2)cc1S(=O)(=O)C(F)(F)F [AZD4320] + Cc1cc2ncnn2cc1Nc1ncc2c(n1)n(C1CCOCC1)c(=O)n2C [AZD7648] (first compound max 1 µM, 7x7, partner max 10 µM) | 0.942 | 0.462 | 0.991 | 0.379 | 0.105 | 0.502 | 0.318 | 0.287 | 0.117 | 0.203 | 0.229 | 0.146 | 0.923 | 0.393 | 0.223 | 1 | 0.798 | 0.391 | 0.226 | 1 |
| COc1nnc2ccc(N3CCC(c4ccc(OCCN5CCN(C)C(=O)[C@H]5C)cc4)CC3)nn12 [AZD5153] + C=CCn1c(=O)c2cnc(Nc3ccc(N4CCN(C)CC4)cc3)nc2n1-c1cccc(C(C)(C)O)n1 [AZD1775] (first compound max 1 µM, partner max 1 µM) | 0.994 | 0.927 | 1 | 0.958 | 0.531 | 0.925 | 0.815 | 0.83 | 0.63 | 1 | 0.453 | 0.935 | 0.932 | 0.96 | 0.538 | 0.941 | 0.601 | 0.679 | 0.853 | 1 |
| COc1nnc2ccc(N3CCC(c4ccc(OCCN5CCN(C)C(=O)[C@H]5C)cc4)CC3)nn12 [AZD5153] + CC1(C)CCC(CN2CCN(c3ccc(C(=O)NS(=O)(=O)c4ccc(NCC5CCOCC5)c([N+](=O)[O-])c4)c(Oc4cnc5[nH]ccc5c4)c3)CC2)=C(c2ccc(Cl)cc2)C1 [Venetoclax] (first compound max 1 µM, 7x7, partner max 1 µM) | 0.663 | 0.666 | 1 | 0.885 | 0.408 | 0.755 | 0.588 | 0.676 | 0.633 | 0.87 | 0.456 | 0.702 | 0.99 | 0.749 | 0.305 | 0.835 | 0.463 | 0.625 | 0.643 | 1 |
| COc1nnc2ccc(N3CCC(c4ccc(OCCN5CCN(C)C(=O)[C@H]5C)cc4)CC3)nn12 [AZD5153] + CCN(CCO)CCCOc1ccc2c(Nc3cc(CC(=O)Nc4cccc(F)c4)[nH]n3)ncnc2c1 [AZD2811] (first compound max 1 µM, 7x7, partner max 1 µM) | 0.982 | 0.68 | 1 | 0.964 | 0.506 | 0.716 | 0.718 | 0.668 | 0.71 | 0.874 | 0.497 | 0.789 | 0.984 | 0.913 | 0.415 | 0.667 | 0.477 | 0.656 | 0.66 | 1 |
